Data on one compound can be found in US11649207B2, “Formulations of T-type calcium channel modulators and methods of use thereof” (PRAXIS PRECISION MEDICINES, INC., priority 2019, dated 2023).

The series has as its system essential tremor. The experiment in a line: Clinical study in essential tremor (TETRAS, accelerometer). Format: in vivo, human. Particulars: essential tremor patient, emerging data. The method, then: A clinical study was conducted to investigate the efficacy, safety, and tolerability of the compound of formula (I) in essential tremor. A patient who has been diagnosed with essential tremor completed 3 study periods: Screening, Treatment period (14 days), and Safety follow-up. The patient received a stable dose of 1 tremor medication throughout the clinical trial. The patient received 20 mg of the compound of formula (I) (one tablet of formulation 5) orally once a day for 7 days and 40 mg of the compound of formula (I) (two tablets of 20 mg formulation 5) orally once a day for 7 days (total of 14 days consecutively). Efficacy of the compound of formula (I) on upper limb tremor was assessed by The Essential Tremor Rating Assessment Scale (TETRAS) upper limb score at Baseline, on Day 7, and on Day 14. Efficacy of the compound of formula (I) on other measures of tremor severity was assessed by TETRAS performance subscale score, TETRAS performance individual items, and accelerometer at Baseline, on Day 7, and on Day 14.

Regarding `CC(C)(C)NC(=O)CN1CCC(CNC(=O)c2cc(F)cc(Cl)c2)CC1` [compound of formula (I)], the tolerability result is on record as “well tolerated”.
